Experimental data: ChEMBL document CHEMBL3638749, “Bicyclic thiazole compounds” (2015)

Molecular target: TRAF2 and NCK-interacting protein kinase (Homo sapiens, UniProt Q9UKE5)
Test: Kinase Assay: The kinase assays were conducted in a 20 μl volume using 384-well plates (Greiner). The reaction mixture consists of compound or vehicle (1% DMSO), 0.08 ng/μl TNIK_N, 1 μM FITC-labeled substrate peptides, including ε-aminocaproic acid and 7 amino acids (described as SEQ ID NO. 3 in "Kinase assay of TEST EXAMPLE 1" of WO 2010/064111(P.31)), 20 mM Hepes, pH 7.5, 0.01% Triton X-100, 5 mM MgCl2, 25 μM ATP and 2 mM DTT. As blank, TNIK_N was excluded from the reaction mixture of vehicle (1% DMSO). The kinase reaction was carried out 1 h at room temperature and terminated by addition of 60 μl of the termination buffer (127 mM Hepes, pH 7.5, 26.7 mM EDTA, 0.01% Triton X-100, 1% DMSO and 0.13% Coating Reagent 3 (Caliper Life Sciences)). The amount of unphosphorylated and phosphorylated FITC-labeled substrate peptides was detected by Mobility Shift Micro Fluidic Technology (Caliper LC3000 System, Caliper Life Sciences).

Chain of TRAF2 and NCK-interacting protein kinase (Q9UKE5 whole entry): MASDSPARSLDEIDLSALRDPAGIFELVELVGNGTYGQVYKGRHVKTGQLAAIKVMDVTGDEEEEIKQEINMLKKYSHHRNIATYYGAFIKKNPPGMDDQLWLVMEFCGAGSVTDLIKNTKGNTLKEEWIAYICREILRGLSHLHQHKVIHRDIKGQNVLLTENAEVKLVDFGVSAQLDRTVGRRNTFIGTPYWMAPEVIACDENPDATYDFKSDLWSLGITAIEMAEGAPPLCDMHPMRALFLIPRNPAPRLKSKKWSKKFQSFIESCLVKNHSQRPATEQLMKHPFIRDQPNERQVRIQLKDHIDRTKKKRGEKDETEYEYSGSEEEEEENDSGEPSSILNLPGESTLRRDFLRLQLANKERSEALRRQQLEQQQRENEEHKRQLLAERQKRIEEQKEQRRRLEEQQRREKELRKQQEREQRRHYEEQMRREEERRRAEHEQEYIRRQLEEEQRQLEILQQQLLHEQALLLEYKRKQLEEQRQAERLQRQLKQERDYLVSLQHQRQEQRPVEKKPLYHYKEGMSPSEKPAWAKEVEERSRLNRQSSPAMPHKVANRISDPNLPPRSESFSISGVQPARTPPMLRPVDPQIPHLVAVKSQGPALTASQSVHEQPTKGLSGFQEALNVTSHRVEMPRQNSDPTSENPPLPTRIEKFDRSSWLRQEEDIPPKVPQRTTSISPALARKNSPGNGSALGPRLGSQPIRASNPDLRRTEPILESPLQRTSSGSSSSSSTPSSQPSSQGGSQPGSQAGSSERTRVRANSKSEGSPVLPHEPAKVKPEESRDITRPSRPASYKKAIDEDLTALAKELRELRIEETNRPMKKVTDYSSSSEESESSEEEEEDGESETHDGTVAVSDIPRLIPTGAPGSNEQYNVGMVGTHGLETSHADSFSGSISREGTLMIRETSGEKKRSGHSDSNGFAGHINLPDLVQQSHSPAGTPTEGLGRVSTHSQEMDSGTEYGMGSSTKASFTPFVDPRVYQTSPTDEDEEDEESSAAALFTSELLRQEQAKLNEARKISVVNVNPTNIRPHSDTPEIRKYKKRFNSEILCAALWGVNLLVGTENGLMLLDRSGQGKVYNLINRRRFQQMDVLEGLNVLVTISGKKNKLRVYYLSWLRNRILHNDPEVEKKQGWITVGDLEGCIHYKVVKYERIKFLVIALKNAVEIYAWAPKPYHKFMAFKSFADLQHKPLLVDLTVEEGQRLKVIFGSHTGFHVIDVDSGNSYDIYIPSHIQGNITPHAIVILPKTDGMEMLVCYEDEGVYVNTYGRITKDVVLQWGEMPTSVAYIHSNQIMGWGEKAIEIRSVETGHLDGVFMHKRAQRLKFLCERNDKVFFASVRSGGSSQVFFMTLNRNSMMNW

IC50 [nM]	SMILES
4.4	CC#CC(=O)Nc1sc(Nc2ccc3ccccc3c2)nc1C(N)=O
9.5	NC(=O)c1nc(Nc2ccc3ccccc3c2)sc1NC(=O)c1ccc(Cn2ccnc2[N+](=O)[O-])cc1
22.5	NC(=O)c1nc(Nc2ccc3cc(F)ccc3c2)sc1NC(=O)c1ccc(NCCO)cc1
